One block for each compound: values may come before it.
Assays:
[1] = DPPH free radical scavenging; conditions: mean ± SD (n = 3)
Protocol: The effect of target compounds and vitamin C to scavenge the DPPH free radical was evaluated with the method described by Villano et al.[43] with slight modifications.
Two millilitres of different concentrations of the sample solution was added to 2.0 ml of DPPH solution (0.04 mg/mL), shaken and allowed to react at room temperature for 30 min. The absorbance value was measured at 517 nm with an ultraviolet-visible spectrophotometer. The blank reference cuvette contained absolute ethanol. All measurements were performed in triplicate. IC50 values were calculated. The percentage of DPPH radical scavenging rate of the target compound is calculated as follows: DPPH free radical scavenging effect (%)=[A0−(A1−A2)]/A0×100% where A0 is the absorbance of 2.0 ml DPPH solution +2.0 ml absolute ethanol; A1 is the absorbance of 2.0 ml DPPH solution +2.0 ml 3-arylcoumarins solution or standard; A2 is the absorbance of 2.0 ml 3-arylcoumarins solution or standard +2.0 ml absolute ethanol.

[2] = hydroxyl radical scavenging; conditions: mean ± SD (n = 3), read-out: OH IC50 Value
Protocol: The ability of the target compounds and vitamin C to scavenge the hydroxyl radical was evaluated with method described by Ismaili et al.[29] with slight modifications. In test tube, 1.0 ml H2O2 solution (0.03%), 1.0 ml FeSO4 solution (2 mmol.L^−1), 1.0 ml salicylic acid solution (10 mmol.L^−1) and 1.0 ml of 3-arylcoumarins and standard water solution with different concentration (0.4–2.0 mg/mL) were mixed. Finally, 1.0 ml H2O2 solution (0.03%) was added to this mixture to start the reaction. Solutions were kept at 37 °C. After 30 min, the absorbance was measured at 510 nm against the reagent blank, where the distilled water was substituted for the H2O2 solution. The percentage of OH scavenging by target compounds and vitamin C was calculated the following equation: OH scavenging effect (%)=[A0−(A1−A2)]/A0×100% where A0 is the absorbance of 1.0 ml distilled water +1.0 ml H2O2 + 1.0 ml FeSO4 + 1.0 ml salicylic acid +1.0 ml H2O2; A1 is the absorbance of 1.0 ml 3-arylcoumarins or standard +1.0 ml H2O2 + 1.0 ml FeSO4 + 1.0 ml salicylic acid +1.0 ml H2O2; A2 is the absorbance of 1.0 ml 3-arylcoumarins or standard +1.0 ml H2O2 + 1.0 ml FeSO4 + 1.0 ml absolute absolute ethanol +1.0 ml H2O2.

mice = tested on: mice; parameters: method as in PMID 17360155; conditions: cited from earlier work
α-Glucosidase = target: T1, α-Glucosidase (Saccharomyces cerevisiae, UniProt P53341); assay: biochemical; assay type: biochemical
T1 construct: purchased Sigma Aldrich G0660-750UN
T1 sequence (P53341 whole entry): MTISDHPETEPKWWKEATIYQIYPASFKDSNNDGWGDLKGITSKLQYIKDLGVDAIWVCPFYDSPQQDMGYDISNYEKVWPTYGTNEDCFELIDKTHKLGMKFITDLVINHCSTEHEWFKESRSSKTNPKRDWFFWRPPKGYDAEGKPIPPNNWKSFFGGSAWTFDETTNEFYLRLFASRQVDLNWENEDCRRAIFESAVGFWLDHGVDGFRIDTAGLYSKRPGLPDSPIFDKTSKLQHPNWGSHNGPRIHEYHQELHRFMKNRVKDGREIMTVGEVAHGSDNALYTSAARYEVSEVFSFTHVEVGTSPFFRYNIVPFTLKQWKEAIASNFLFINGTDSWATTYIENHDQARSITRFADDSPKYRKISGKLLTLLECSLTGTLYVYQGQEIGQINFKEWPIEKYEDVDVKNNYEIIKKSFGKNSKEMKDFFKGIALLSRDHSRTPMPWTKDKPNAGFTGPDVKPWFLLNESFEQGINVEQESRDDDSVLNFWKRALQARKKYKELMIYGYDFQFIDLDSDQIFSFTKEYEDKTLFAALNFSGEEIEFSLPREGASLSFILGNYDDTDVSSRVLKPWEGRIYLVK
Protocol: α-Glucosidase (G0660-750UN, Sigma Aldrich) and 4-Nitrophenyl α-D-glucopyranoside (PNPG, Macklin) were dissolved in phosphate buffer (pH 6.8, 100 mM), and the test compounds were dissolved in DMSO solution. The experiment was divided into blank group, control group, sample blank group, and sample group. The reagents were loaded in 96-well plates at the dose of the table (Table 8). The solution was bathed in 37 °C water for 10 min, and then enzyme solution was added. After reaction at 37 °C for 20 min, 70 μL Na2CO3 solution ([…]) was added to stop the reaction. All experiments were run in triplicate. […] Since PNPG can produce glucose and p-Nitrophenol (PNP) under the action of α-glucosidase, PNP has the greatest absorption at 405 nm. The absorbance was determined by the microplate reader, and the inhibition rate of α-glucosidase and the IC50 value of each sample were calculated according to the formula. Inhibition rate %={[(AC−AB)−(AS−ASB)]/(AC−AB)}×100% where AC is the absorbance of control group; AB is the absorbance of blank group; AS is the absorbance of sample group; ASB is the absorbance of sample blank group.

[3] = Oral toxicity to mice (Lorke's method); conditions: both sexes, mouse, in vivo, Kunming mice, observed 14 days
Protocol: With reference to Lorke’s method, kunming mice were used as targets to estimate the oral toxicity of each compound to mice. We select compounds 11, 17, 25, 28, and 35 at concentrations of 10, 100, and 1000 mg/kg to test their oral toxicity in the first phase, and 1600, 2900, and 5000 mg/kg at the second phase.
Experiments were performed on Kunming mice (male and female half, bw range, 25–30 g). Mice were housed in a climate and light controlled room with a 12 h light/dark cycle. Twelve hours before experiments, food was withheld, but animals had free access to drinking water. The compounds were suspended in vehicle (Tween-80, 0.2% in saline). The concentrations were adjusted to orally administrate 0.2 ml/10 g of bw. Mice were treated in two phases. In the first, intragastric doses of 10, 100 and 1000 mg/kg of bw of compounds were administered. On the second, the doses were adjusted to 1600, 2900, and 5000 mg/kg of bw of compounds. In both phases, mice were observed daily in a period of 14 days for mortality, toxic effects and/or changes in behavioural pattern. At the end of the experiments, the mice were sacrificed in a CO2 chamber.

STZ-diabetic mice = assay: Acute hypoglycemic assay in STZ-diabetic mice; assay type: in vivo; conditions: STZ-diabetics mice
Protocol: Type II diabetes mellitus was induced in mice by a single intraperitoneal injection of freshly prepared STZ (Sigma Aldrich) dissolved in 0.1M citrate buffer, pH 4.5, in a volume of 110 mg/kg of bw. After 7 days of STZ administration, blood glucose levels of each mouse were determined. Mice with blood glucose levels higher than 11 mM were considered diabetic and were included in the study.
STZ-induced diabetic mice and normal mice were placed in single cages with wire-net floors and deprived of food for 12 h before experimentation but allowed free access to tap water throughout. The compounds (at the doses of 10, 30, and 100 mg/kg of bw) were suspended in 0.05% Tween-80 in saline solution. Glibenclamide (10 mg/kg of bw) was suspended in the same vehicle. The target compounds were freshly prepared immediately before experimentation and administered by the intragastrical route at the doses of 10 ml/kg of bw. Control mice received only the vehicle (0.05% Tween-80 in saline solution) by the same route. Blood glucose levels were measured at 0, 1.5, 3, 5, 7, and 9 h after drugs administration.

AGEs formation = assay: In vitro inhibitory activity of AGEs formation (bovine serum albumin/glucose); assay type: biochemical; conditions: mean ± SD (n = 3)
Protocol: To prepare the AGEs reaction solution, 10 mg/mL of bovine serum albumin in 50 mM PBS (pH 7.4) was added to 0.2 M glucose, and 0.02% sodium azide was added to prevent bacterial growth. The reaction mixture (3.0 ml) was then mixed with various concentrations (0.5–1000 μg/mL) of the target compounds (1.0 ml) dissolved in DMSO. After incubating at 37 °C for 14 d, the fluorescence intensity of AGE was determined by a fluorospectrophotometer (PE, USA) with excitation and emission wavelengths at 350 nm and 420 nm, respectively. All experiments were run in triplicate. Aminoguanidine hydrochloride was used as a reference compound. The inhibition rate of AGEs formation and the IC50 value of each sample were calculated according to the formula. Inhibition rate %={[(AC−AB)−(AS−ASB)]/(AC−AB)}×100% where AC is the absorbance of control group(1.0 ml glucose +1.0 ml bovine serum albumin +1.0 ml sodium azide +1.0 ml DMSO); AB is the absorbance of blank group(1.0 ml PBS +1.0 ml bovine serum albumin +1.0 ml sodium azide +1.0 ml DMSO); AS is the absorbance of sample group (1.0 ml glucose +1.0 ml bovine serum albumin +1.0 ml sodium azide +1.0 ml target compound solution or Aminoguanidine hydrochloride solution); ASB is the absorbance of sample blank group (1.0 ml PBS +1.0 ml bovine serum albumin +1.0 ml sodium azide +1.0 ml target compound solution or Aminoguanidine hydrochloride solution).

[4] = tested on: STZ-induced hyperglycemic mice; parameters: method as in PMID 20040119; conditions: 100 mg/kg/day; cited from earlier work

- IC50 [1]: 19.6 ± 1.88 µM
- IC50 ([1]; listed as Vitamin C): 34.9 ± 0.85 µM
- IC50 [2]: 788 ± 15.7 µM
Compound: O=C1O[C@H]([C@@H](O)CO)C(O)=C1O [Vitaminc, Vitamin C, reference compound]
- protection against STZ-induced elevation in the plasma glucose levels (mice): only a marginal to moderate protection

Compound: O=c1oc2cc(O)cc(O)c2cc1-c1ccc(O)cc1 [Compound 28, 5,7-Dihydroxy-3-(4-hydroxyphenyl)-coumarin]
- IC50 [1]: 41.51 ± 0.18 µM
- IC50 [2]: > 1000 µM
- α-glucosidase inhibitory activity (in words) (α-Glucosidase; in vitro): moderate to excellent inhibitory activity
- IC50 (α-Glucosidase; mean ± SD (n = 3), read-out: α-Glucosidase inhibitory activity IC50 Value): 1.37 ± 0.15 µM
- LD50 at 14 days [3]: > 5000 mg/kg
- Blood glucose concentration (STZ-diabetic mice; 10 mg/kg of bw per os, 0h): 15.3 ± 3.8 mM
- % Variation of glycemia (STZ-diabetic mice; 10 mg/kg of bw per os, 1.5h): (−3.27) %
- Blood glucose concentration (STZ-diabetic mice; 10 mg/kg of bw per os, 1.5h): 14.8 ± 5.8 mM
- % Variation of glycemia (STZ-diabetic mice; 10 mg/kg of bw per os, 3h): (−25.49) %
- Blood glucose concentration (STZ-diabetic mice; 10 mg/kg of bw per os, 3h): 11.4 ± 4.2 mM
- % Variation of glycemia (STZ-diabetic mice; 10 mg/kg of bw per os, 5h): (−41.83) %
- Blood glucose concentration (STZ-diabetic mice; 10 mg/kg of bw per os, 5h): 8.9 ± 2.6 mM
- % Variation of glycemia (STZ-diabetic mice; 10 mg/kg of bw per os, 7h): (−58.17) %
- Blood glucose concentration (STZ-diabetic mice; 10 mg/kg of bw per os, 7h): 6.4 ± 1.6 mM
- % Variation of glycemia (STZ-diabetic mice; 10 mg/kg of bw per os, 9h): (−54.25) %
- Blood glucose concentration (STZ-diabetic mice; 10 mg/kg of bw per os, 9h): 7.0 ± 2.4 mM
- Blood glucose concentration (STZ-diabetic mice; 30 mg/kg of bw per os, 0h): 18.2 ± 6.7 mM
- % Variation of glycemia (STZ-diabetic mice; 30 mg/kg of bw per os, 1.5h): (−18.13) %
- Blood glucose concentration (STZ-diabetic mice; 30 mg/kg of bw per os, 1.5h): 14.9 ± 6.6 mM
- % Variation of glycemia (STZ-diabetic mice; 30 mg/kg of bw per os, 3h): (−25.82) %
- Blood glucose concentration (STZ-diabetic mice; 30 mg/kg of bw per os, 3h): 13.5 ± 6.1 mM
- % Variation of glycemia (STZ-diabetic mice; 30 mg/kg of bw per os, 5h): (−30.22) %
- Blood glucose concentration (STZ-diabetic mice; 30 mg/kg of bw per os, 5h): 12.7 ± 6.7 mM
- % Variation of glycemia (STZ-diabetic mice; 30 mg/kg of bw per os, 7h): (−43.41) %
- Blood glucose concentration (STZ-diabetic mice; 30 mg/kg of bw per os, 7h): 10.3 ± 5.6 mM
- % Variation of glycemia (STZ-diabetic mice; 30 mg/kg of bw per os, 9h): (−59.89) %
- Blood glucose concentration (STZ-diabetic mice; 30 mg/kg of bw per os, 9h): 7.3 ± 4.5 mM
- Blood glucose concentration (STZ-diabetic mice; 100 mg/kg of bw per os, 0h): 18.2 ± 4.1 mM
- % Variation of glycemia (STZ-diabetic mice; 100 mg/kg of bw per os, 1.5h): (−4.95) %
- Blood glucose concentration (STZ-diabetic mice; 100 mg/kg of bw per os, 1.5h): 17.3 ± 6.7 mM
- % Variation of glycemia (STZ-diabetic mice; 100 mg/kg of bw per os, 3h): (−28.57) %
- Blood glucose concentration (STZ-diabetic mice; 100 mg/kg of bw per os, 3h): 13.0 ± 6.6 mM
- % Variation of glycemia (STZ-diabetic mice; 100 mg/kg of bw per os, 5h): (−39.56) %
- Blood glucose concentration (STZ-diabetic mice; 100 mg/kg of bw per os, 5h): 11.0 ± 6.4 mM
- % Variation of glycemia (STZ-diabetic mice; 100 mg/kg of bw per os, 7h): (−35.17) %
- Blood glucose concentration (STZ-diabetic mice; 100 mg/kg of bw per os, 7h): 11.8 ± 6.0 mM
- % Variation of glycemia (STZ-diabetic mice; 100 mg/kg of bw per os, 9h): (−43.96) %
- Blood glucose concentration (STZ-diabetic mice; 100 mg/kg of bw per os, 9h): 10.2 ± 4.6 mM

Compound: NCCS(=O)(=O)O [taurine]
- protection against STZ-induced elevation in the plasma glucose levels (mice): only a marginal to moderate protection

Compound: N=C(N)NN [AG, amino guanidine, reference compound]
- IC50 (AGEs formation): 270 ± 7.19 µM
- effect on STZ-induced hyperglycemic mice [4]: no significant effect
